Where a name gives a salt, the structure may show the parent alone.
tested on: not given; assay: not given; details: not given

| melting point | SMILES |
| --- | --- |
| 65 °C | COc1cc(C)c(S(=O)(=O)N(C)CCOCC(=O)N2CCC(CCCN3CCC3)CC2)c(C)c1.O=C(O)/C=C/C(=O)O |
| 230 °C | COc1cc(C)c(S(=O)(=O)N(C)CCOCC(=O)N2CCN(C3CCN(C(C)(C)C)CC3)CC2)c(C)c1 (as salt: fumarate) [Example 32, N-[2-[2-[4-[1-(1,1-dimethylethyl)-4-piperidinyl]-1-piperazinyl]-2-oxo-ethoxy]ethyl]-4-methoxy-N,2,6-trimethylbenzenesulphonamide, difumarate] |
| 60 °C | CCN(CCOCC(=O)N1CCN(CCCN(C)C)CC1)S(=O)(=O)c1c(C)cc(OC)cc1C.O=C(O)/C=C/C(=O)O.O=C(O)/C=C/C(=O)O |
| 82 °C | COc1cc(C)c(S(=O)(=O)N(C)CCOCC(=O)N2CCN(CCCN3CCC3)CC2)c(C)c1.O=C(O)/C=C/C(=O)O.O=C(O)/C=C/C(=O)O |
| 60 °C | COc1cc(Cl)c(S(=O)(=O)N(C)CCOCC(=O)N2CCN(CCCN(C)C)CC2)c(Cl)c1.O=C(O)/C=C/C(=O)O.O=C(O)/C=C/C(=O)O |
| 55 °C | COc1cc(C)c(S(=O)(=O)N(C)CCOCC(=O)N2CCC(CCN3CCCC3)CC2)c(C)c1 (as salt: fumarate) [Example 76, 4-methoxy-N,2,6-trimethyl-N-[2-[2-[4-[2-(1-pyrrolidinyl)ethyl]-1-piperidinyl]-2-oxoethoxy]ethyl]benzenesulphonamide, fumarate] |
| 141 °C | COc1cc(C)c(S(=O)(=O)N(CCOCC(=O)N2CCN(CCN3CCCC3)CC2)C2CC2)c(C)c1 (as salt: fumarate) [Example 19, N-[2-[2-[4-[2-(1-pyrrolidinyl)ethyl]-1-piperazinyl]-2-oxo-ethoxy]ethyl]-4-methoxy-N-cyclopropyl-2,6-dimethylbenzenesulphonamide, difumarate] |
| 206 °C | CCN(CCOCC(=O)N1CCN(C2CCN(C)CC2)CC1)S(=O)(=O)c1c(C)cc(OC)cc1C (as salt: fumarate) [Example 21, N-[2-[2-[4-(1-methyl-4-piperidinyl)-1-piperazinyl]-2-oxo-ethoxy]ethyl]-4-methoxy-N-ethyl-2,6-dimethylbenzenesulphonamide, difumarate] |
| 75 °C | COc1cc(C)c(S(=O)(=O)N(C)CCOCC(=O)N2CCC(CN3CCC3)CC2)c(C)c1.O=C(O)/C=C/C(=O)O |
| 50 °C | COc1cc(C)c(S(=O)(=O)N(CCOCC(=O)N2CCC(CCN3CCCC3)CC2)C2CC2)c(C)c1 (as salt: fumarate) [Example 79, N-cyclopropyl-4-methoxy-2,6-dimethyl-N-[2-[2-[4-[2-(1-pyrrolidinyl)ethyl]-1-piperidinyl]-2-oxoethoxy]ethyl]benzenesulphonamide, fumarate] |
| 60 °C | CCN(CC)CCC1CCN(C(=O)COCCN(C)S(=O)(=O)c2c(C)cc(OC)cc2C)CC1.O=C(O)/C=C/C(=O)O |
| 204 °C | COc1cc(C)c(S(=O)(=O)N(C)CCOCC(=O)N2CCN(CCCN3CCN(C)CC3)CC2)c(C)c1 (as salt: fumarate) [Example 45, N-[2-[2-[4-[3-(4-methyl-1-piperazinyl)propyl]-1-piperazinyl]-2-oxo-ethoxy]ethyl]-4-methoxy-N,2,6-trimethylbenzenesulphonamide, difumarate] |
| 70 °C | COc1cc(Cl)c(S(=O)(=O)N(C)CCOCC(=O)N2CCC(CCN(C)C)CC2)c(Cl)c1.O=C(O)/C=C/C(=O)O |
| 55 °C | COc1cc(C)c(S(=O)(=O)N(C)CCOCC(=O)N2CCC(CCCN(C)C)CC2)c(C)c1.O=C(O)/C=C/C(=O)O |
| 60 to 62 °C | COc1cc(C)c(S(=O)(=O)N(C)CCOCC(=O)N2CCC(C(C)(C)CN3CCC3)CC2)c(C)c1.O=C(O)/C=C/C(=O)O |

| SMILES | melting point |
| --- | --- |
| CCN1C2CCC1CC(N1CCN(C(=O)COCCN(C)S(=O)(=O)c3c(C)cc(OC)cc3C)CC1)C2 (stereo not drawn) (as salt: fumarate) [Example 46, N-[2-[2-[4-(8-ethyl-8-azabicyclo[3.2.1]oct-3-yl)-1-piperazinyl]-2-oxo-ethoxy]ethyl]-4-methoxy-N,2,6-trimethylbenzenesulphonamide, difumarate] | 132 °C |

target: T1, B1 receptor of bradykinin (Homo sapiens, UniProt P46663); assay: human umbilical vein contraction by des-Arg10-Kallidin, antagonism at the B1 receptor of bradykinin; type: cell-based; details: isolated human umbilical vein rings, agonist des-Arg10-Kallidin, pKB=-log KB from EC50 concentration ratio
T1 construct: To induce expression of the B1 receptor of bradykinin, the vein segments are allowed to incubate at 37° C; from tissue; host or cells: human umbilical vein rings, endothelium removed, incubated 16 h in EMEM to induce the receptor
T1 sequence (P46663 1-353): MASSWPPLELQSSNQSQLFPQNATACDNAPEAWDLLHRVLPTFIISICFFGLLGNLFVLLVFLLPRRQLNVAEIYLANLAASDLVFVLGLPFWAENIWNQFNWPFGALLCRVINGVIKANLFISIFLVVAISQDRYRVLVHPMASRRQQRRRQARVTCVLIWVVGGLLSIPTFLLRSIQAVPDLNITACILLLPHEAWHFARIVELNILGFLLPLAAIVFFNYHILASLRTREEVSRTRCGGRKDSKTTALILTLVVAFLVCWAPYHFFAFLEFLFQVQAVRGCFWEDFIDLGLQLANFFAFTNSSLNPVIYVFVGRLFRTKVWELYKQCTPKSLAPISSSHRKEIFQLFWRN
Protocol: This test uses the human umbilical vein and is conducted as per the following protocol:
The cord is dissected in Krebs solution to release the umbilical vein. The vein is cleansed of all adhering tissue and cut into small rings 3-4 mm in width. The endothelium is carefully removed by inserting a fine n° 1 catheter, made slightly abrasive, into the vessel lumen.
After a series of rinsings, rests and load readjustments, the maximum contraction of each segment is determined by further depolarisation with the KPSS solution.
After a new rest period during which the 1 g load is constantly readjusted, the following compounds are added to the isolated organ bath: Mepyramine (1 μM), Atropine (1 μM), Indometacine (3 μM), LNA (30 μM), Captopril (10 μM), DL-Thiorphan (1 μM) and Nifedipine (0.1 μM).
After 20 minutes, the molecule to be tested or the molecule solvent is added to the isolated organ bath. The molecules are examined at 10 μM; should a molecule show a sufficient level of activity, it is examined at lower concentrations (eg: 1-0.1-0.01 μM).
After 15 minutes incubation, the vein segments are contracted through the addition of increasing concentrations of des-Arg10-Kallidin (0.1 nM to 30 000 nM) in the chamber.
The pKB=[−log KB] is obtained from the equation: KB—[A]/(concentration ratio−1) in which [A] is the concentration of antagonist and the (concentration ratio) represents the ratio between EC50 in the presence of an antagonist and EC50 in the absence of antagonist.

| Kb | SMILES |
| --- | --- |
| 10 nM | COc1cc(C)c(S(=O)(=O)N(C)CCOCC(=O)N2CCC(CCN3CCCC3)CC2)c(C)c1 [Example 76, 4-methoxy-N,2,6-trimethyl-N-[2-[2-[4-[2-(1-pyrrolidinyl)ethyl]-1-piperidinyl]-2-oxoethoxy]ethyl]benzenesulphonamide, fumarate] |
| 15.8 nM | CCN(CCOCC(=O)N1CCN(C2CCN(C)CC2)CC1)S(=O)(=O)c1c(C)cc(OC)cc1C [Example 21, N-[2-[2-[4-(1-methyl-4-piperidinyl)-1-piperazinyl]-2-oxo-ethoxy]ethyl]-4-methoxy-N-ethyl-2,6-dimethylbenzenesulphonamide, difumarate] |
| 7.94 nM | COc1cc(C)c(S(=O)(=O)N(C)CCOCC(=O)N2CCC(N3CCCN(C)CC3)CC2)c(C)c1 [Example 89, N-[2-[2-[4-(hexahydro-4-methyl-1H-1,4-diazepin-1-yl)-1-piperidinyl]-2-oxoethoxy]ethyl]-4-methoxy-N,2,6-trimethylbenzenesulphonamide, fumarate] |
| 0.631 nM | COc1cc(C)c(S(=O)(=O)N(C)CCOCC(=O)N2CCN(C3CCN(C(C)(C)C)CC3)CC2)c(C)c1 [Example 32, N-[2-[2-[4-[1-(1,1-dimethylethyl)-4-piperidinyl]-1-piperazinyl]-2-oxo-ethoxy]ethyl]-4-methoxy-N,2,6-trimethylbenzenesulphonamide, difumarate] |
| 31.6 nM | COc1cc(C)c(S(=O)(=O)N(CCOCC(=O)N2CCN(CCN3CCCC3)CC2)C2CC2)c(C)c1 [Example 19, N-[2-[2-[4-[2-(1-pyrrolidinyl)ethyl]-1-piperazinyl]-2-oxo-ethoxy]ethyl]-4-methoxy-N-cyclopropyl-2,6-dimethylbenzenesulphonamide, difumarate] |
| 12.6 nM | COc1cc(C)c(S(=O)(=O)N(C)CCOCC(=O)N2CCN(CCCN3CCN(C)CC3)CC2)c(C)c1 [Example 45, N-[2-[2-[4-[3-(4-methyl-1-piperazinyl)propyl]-1-piperazinyl]-2-oxo-ethoxy]ethyl]-4-methoxy-N,2,6-trimethylbenzenesulphonamide, difumarate] |
| 7.94 nM | COc1cc(C)c(S(=O)(=O)N(CCOCC(=O)N2CCC(CCN3CCCC3)CC2)C2CC2)c(C)c1 [Example 79, N-cyclopropyl-4-methoxy-2,6-dimethyl-N-[2-[2-[4-[2-(1-pyrrolidinyl)ethyl]-1-piperidinyl]-2-oxoethoxy]ethyl]benzenesulphonamide, fumarate] |
| 0.631 nM | CCN1CCC(C2CCN(C(=O)COCCN(C)S(=O)(=O)c3c(C)cc(OC)cc3C)CC2)CC1 [Example 84, 4-methoxy-N,2,6-trimethyl-N-[2-[2-[4-(1-ethyl-4-piperidinyl)-1-piperidinyl]-2-oxoethoxy]ethyl]benzenesulphonamide, fumarate] |

| SMILES | Kb |
| --- | --- |
| CCN1C2CCC1CC(N1CCN(C(=O)COCCN(C)S(=O)(=O)c3c(C)cc(OC)cc3C)CC1)C2 (stereo not drawn) [Example 46, N-[2-[2-[4-(8-ethyl-8-azabicyclo[3.2.1]oct-3-yl)-1-piperazinyl]-2-oxo-ethoxy]ethyl]-4-methoxy-N,2,6-trimethylbenzenesulphonamide, difumarate] | 2.51 nM |

tested on: formalin-induced pain response (paw licking); assay: formalin-induced pain response test in mice; type: in vivo; details: oral route, dose 1 mg/kg, 2nd phase 15 to 30 min after formalin injection
Protocol: The compounds of the present invention were evaluated for their analgesic property using the formalin-induced pain response test in mice (Shibata, M., Ohkubo, T., Takahashi, H. & R. Inoki. Modified formalin test: characteristic biphasic pain response. Pain, 38, 347-352). To summarize, formalin (0.92% in physiological saline) is injected into the hind paw and the period of paw licking, which represents pain intensity, is recorded from 0 to 5 min (1st phase) and from 15 to 30 min (2nd phase) after the injection.

| SMILES | percentage inhibition of the second paw licking phase induced by formalin |
| --- | --- |
| COc1cc(C)c(S(=O)(=O)N(C)CCOCC(=O)N2CCN([C@@H]3CN4CCC3CC4)CC2)c(C)c1 [Example 6, N-[2-[2-[4-[(3S)-1-azabicyclo[2.2.2]oct-3-yl]-1-piperazinyl]-2-oxo-ethoxy]ethyl]-4-methoxy-N,2,6-trimethylbenzenesulphonamide, fumarate] | 40% |

same assay, conditions: oral route, dose 3 mg/kg, 2nd phase 15 to 30 min after formalin injection

| SMILES | percentage inhibition of the second paw licking phase induced by formalin |
| --- | --- |
| COc1cc(C)c(S(=O)(=O)N(C)CCOCC(=O)N2CCN(C3CN4CCC3CC4)CC2)c(C)c1 (racemic) [Example 4, N-[2-[2-[4-[(3RS)-1-azabicyclo[2.2.2]oct-3-yl]-1-piperazinyl]-2-oxo-ethoxy]ethyl]-4-methoxy-N,2,6-trimethylbenzenesulphonamide, difumarate] | 43% |
